From patent US8093279B2, “Compound” (priority 2005, dated 2012)

What was measured:
steroid sulphatase = target: T1, steroid sulphatase (Homo sapiens, UniProt P08842); settings: cited from earlier work
T1 sequence (P08842 22-583): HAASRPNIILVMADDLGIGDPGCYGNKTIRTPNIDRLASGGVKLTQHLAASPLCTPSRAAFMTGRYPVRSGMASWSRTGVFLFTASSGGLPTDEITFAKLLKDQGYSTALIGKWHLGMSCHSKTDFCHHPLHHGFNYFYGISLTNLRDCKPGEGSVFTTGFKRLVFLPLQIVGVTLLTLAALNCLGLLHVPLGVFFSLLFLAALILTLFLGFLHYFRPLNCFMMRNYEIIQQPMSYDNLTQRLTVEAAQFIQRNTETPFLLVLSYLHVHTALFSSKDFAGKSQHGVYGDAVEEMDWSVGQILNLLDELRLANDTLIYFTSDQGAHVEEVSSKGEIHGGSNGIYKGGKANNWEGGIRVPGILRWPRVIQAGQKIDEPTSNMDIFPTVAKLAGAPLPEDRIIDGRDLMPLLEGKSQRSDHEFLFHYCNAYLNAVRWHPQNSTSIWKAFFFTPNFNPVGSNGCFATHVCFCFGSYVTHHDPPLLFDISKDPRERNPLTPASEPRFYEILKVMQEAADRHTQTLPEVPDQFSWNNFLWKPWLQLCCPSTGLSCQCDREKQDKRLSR

rats = settings: cited from earlier work
Aromatase = target: T2, Aromatase (Homo sapiens, UniProt P11511); experiment: Aromatase activity in JEG3 choriocarcinoma cells (Protocol 6); type: cell-based; settings: JEG3 cells
T2 construct: host or cells: JEG3 choriocarcinoma cells (intact monolayers)
T2 sequence (P11511 1-503): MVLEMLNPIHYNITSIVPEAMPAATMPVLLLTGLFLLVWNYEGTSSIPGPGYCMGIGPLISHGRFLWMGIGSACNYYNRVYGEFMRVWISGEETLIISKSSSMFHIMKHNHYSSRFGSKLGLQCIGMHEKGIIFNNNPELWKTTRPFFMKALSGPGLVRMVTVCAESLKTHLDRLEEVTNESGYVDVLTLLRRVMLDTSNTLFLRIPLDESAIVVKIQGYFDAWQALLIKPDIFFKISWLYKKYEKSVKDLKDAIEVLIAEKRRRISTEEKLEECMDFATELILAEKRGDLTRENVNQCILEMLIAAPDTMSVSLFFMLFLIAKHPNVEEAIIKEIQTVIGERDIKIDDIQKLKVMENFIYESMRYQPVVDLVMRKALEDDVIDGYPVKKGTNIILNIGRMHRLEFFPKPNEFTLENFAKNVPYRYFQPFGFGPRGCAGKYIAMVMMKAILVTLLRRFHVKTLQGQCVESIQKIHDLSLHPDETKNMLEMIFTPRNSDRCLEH
Experimental: Aromatase activity is measured in JEG3 choriocarcinoma cells, obtained from the ATCC.
During the aromatase reaction, ^3H2O is liberated which can be quantified using a liquid scintillation spectrometer (Beckman-Coulter, High Wycombe, Bucks. UK). […] The number of cell nuclei per flask is determined using a Coulter Counter after treating the cell monolayers with Z aponin.
Unpaired Student's t test was used to test the statistical significance of results.
(§1) A number of compounds were tested for aromatase and steroid sulphatase inhibition in accordance with the above Protocols 1 and 6.

steroid sulphatase (STS) = target: T3, steroid sulphatase (STS) (Homo sapiens, UniProt P08842); experiment: Inhibition of steroid sulphatase activity in intact JEG3 cells (Protocol 1); type: cell-based; settings: for IC50: JEG3 cells
T3 construct: host or cells: JEG3 choriocarcinoma cells (intact monolayers)
T3 sequence (P08842 22-583): T1 sequence (P08842 22-583)
Experimental: Inhibition of Steroid Sulphatase Activity in JEG3 cells
Steroid sulphatase activity is measured in vitro using intact JEG3 choriocarcinoma cells. This cell line may be used to study the control of human breast cancer cell growth.
Cells are maintained in Minimal Essential Medium (MEM) (Flow Laboratories, Irvine, Scotland) containing 20 mM HEPES, 5% foetal bovine serum, 2 mM glutamine, non-essential amino acids and 0.075% sodium bicarbonate. Up to 30 replicate 25 cm^2 tissue culture flasks are seeded with approximately 1×10^5 cells/flask using the above medium. Cells are grown to 80% confluency and the medium is changed every third day.
Intact monolayers of JEG3 cells in triplicate 25 cm^2 tissue culture flasks are washed with Earle's Balanced Salt Solution (EBSS from ICN Flow, High Wycombe, U.K.) and incubated for 3-4 hours at 37° C. with 5 pmol (7×10^5 dpm) [6, 7-3H]oestrone-3-sulphate (specific activity 60 Ci/mmol from New England Nuclear, Boston, Mass., U.S.A.) in serum-free MEM (2.5 ml) together with oestrone-3-sulphamate (11 concentrations: 0; 1fM; 0.01 pM; 0.1 pM; 1 pM; 0.01 nM; 0.1 nM; 1 nM; […]). After incubation each flask is cooled and the medium (1 ml) is pipetted into separate tubes containing [14C]oestrone (7×10^3 dpm) (specific activity 97 Ci/mmol from Amersham International Radiochemical Centre, Amersham, U.K.). The mixture is shaken thoroughly for 30 seconds with toluene (5 ml). Experiments have shown that >90% [14C]oestrone and <0.1% [3H]oestrone-3-sulphate is removed from the aqueous phase by this treatment. A portion (2 ml) of the organic phase is removed, evaporated and the 3H and 14C content of the residue determined by scintillation spectrometry. The mass of oestrone-3-sulphate hydrolysed was calculated from the 3H counts obtained (corrected for the volumes of the medium and organic phase used, and for recovery of [14C]oestrone added) and the specific activity of the substrate. Each batch of experiments includes incubations of microsomes prepared from a sulphatase-positive human placenta (positive control) and flasks without cells (to assess apparent non-enzymatic hydrolysis of the substrate). The number of cell nuclei per flask is determined using a Coulter Counter after treating the cell monolayers with Zaponin. One flask in each batch is used to assess cell membrane status and viability using the Trypan Blue exclusion method (Phillips, H. J. (1973) In: Tissue culture and applications, [eds: Kruse, D. F. & Patterson, M. K.]; pp. 406-408; Academic Press, New York).
Results for steroid sulphatase activity are expressed as the mean±1 S.D. of the total product (oestrone+oestradiol) formed during the incubation period (3-4 hours) calculated for […] and, for values showing statistical significance, as a percentage reduction (inhibition) over incubations containing no oestrone-3-sulphamate. Unpaired Student's t-test was used to test the statistical significance of results.
as §1

[1] = cited from earlier work
E1-STS = target: T4, E1-STS (Homo sapiens, UniProt P08842); settings: at 0.1 nM; cited from earlier work
T4 construct: host or cells: intact MCF-7 cells (endogenous enzyme)
T4 sequence (P08842 22-583): T1 sequence (P08842 22-583)

| IC50 (Aromatase) [nM] | SMILES | IC50 (steroid sulphatase (STS)) [nM] | further results |
| --- | --- | --- | --- |
|  | COc1cc2c(cc1OS(N)(=O)=O)CC[C@@H]1[C@@H]2CC[C@]2(C)C(=O)CC[C@@H]12 [2-methoxyoestrone-3-O-sulphamate] |  | potency as a steroid sulphatase inhibitor compared with EMATE (steroid sulphatase): equipotent with EMATE; oestrogenicity (rats; rat, in vivo): devoid of oestrogenicity |
| < 1000 | N#Cc1ccc(Cn2cncn2)cc1-c1ccc(OS(N)(=O)=O)cc1 [Compound 20, 5′-((1H-1,2,4-triazol-1-yl)methyl)-2′-cyanobiphenyl-4-yl sulfamate] | < 1000 |  |
|  | N#Cc1ccc(Cn2cncn2)cc1-c1ccc(OS(N)(=O)=O)c(Cl)c1 [Compound 23, 5′-((1H-1,2,4-triazol-1-yl)methyl)-3-chloro-2′-cyanobiphenyl-4-yl sulfamate] | < 1000 |  |
| < 1000 | N#Cc1ccc(-c2ccc(OS(N)(=O)=O)cc2)cc1Cn1cncn1 [Compound 31, 3′-((1H-1,2,4-triazol-1-yl)methyl)-4′-cyanobiphenyl-4-yl sulfamate] | < 1000 | melting point: 179 to 180 °C |
| < 1000 | N#Cc1ccc(-c2ccc(OS(N)(=O)=O)c(Cl)c2)cc1Cn1cncn1 [Compound 33, 3′-((1H-1,2,4-triazol-1-yl)methyl)-3-chloro-4′-cyanobiphenyl-4-yl sulfamate] | < 1000 | melting point: 155 to 158 °C |
| < 1000 | N#Cc1cc(Cn2cncn2)cc(-c2ccc(OS(N)(=O)=O)c(Cl)c2)c1 [Compound 40, 3′-((1H-1,2,4-triazol-1-yl)methyl)-3-chloro-5′-cyanobiphenyl-4-yl sulfamate] | < 10000 |  |
| < 1000 | N#Cc1cc(Cn2cncn2)ccc1-c1ccc(OS(N)(=O)=O)cc1 [Compound 48, 4′-((1H-1,2,4-triazol-1-yl)methyl)-2′-cyanobiphenyl-4-yl sulfamate] | < 1000 |  |
| < 1000 | N#Cc1cc(Cn2cncn2)ccc1-c1ccc(OS(N)(=O)=O)c(Cl)c1 [Compound 50, 4′-((1H-1,2,4-triazol-1-yl)methyl)-3-chloro-2′-cyanobiphenyl-4-yl sulfamate] | < 1000 |  |
| < 1000 | CC(C)(C#N)c1cc(Cn2cncn2)cc(-c2ccc(OS(N)(=O)=O)c(Cl)c2)c1 [Compound 58, 3′-((1H-1,2,4-triazol-1-yl)methyl)-3-chloro-5′-(2-cyanopropan-2-yl)biphenyl-4-yl sulfamate] |  | JEG3-cells STS, % at single concentration (steroid sulphatase (STS); @ 10 μM): 68.2 ± 1.6% @ 10 μM; melting point: 71 to 74 °C |
|  | C[C@]12CC[C@@H]3c4ccc(OS(=O)(=O)O)cc4CC[C@H]3[C@@H]1CCC2=O [E1S, oestrone sulphate] |  | half-life in blood [1]: 10 to 12 h |
|  | CC12CCC3c4ccc(OS(N)(=O)=O)cc4CCC3C1CCC2=O (stereo not drawn) [EMATE, oestrone-3-sulphamate] |  | inhibition of E1-STS activity in intact MCF-7 cells (E1-STS): more than 99%; oral uterotrophic activity in rats relative to estradiol (rats; oral, rats, versus estradiol): 100 times |
|  | NS(=O)(=O)Oc1ccc(C#Cc2cccc(Cn3cncn3)c2)cc1Cl [compound 2054] | < 1000 |  |

| SMILES | IC50 (Aromatase) [nM] | IC50 (steroid sulphatase (STS)) [nM] | further results |
| --- | --- | --- | --- |
| NS(=O)(=O)Oc1ccc(-c2cccc(Cn3cncn3)c2)cc1 [compound 1455] | < 1000 | < 10000 |  |
| NS(=O)(=O)Oc1cccc(-c2cccc(Cn3cncn3)c2)c1 [compound 1848] | < 1000 | < 10000 |  |
| NS(=O)(=O)Oc1ccc(-c2cccc(Cn3cncn3)c2)cc1Cl [compound 1854] | < 1000 | < 1000 |  |
| NS(=O)(=O)Oc1ccc(-c2ccc(Cn3cncn3)cc2)cc1 [compound 1976] | < 10000 | < 10000 |  |
| NS(=O)(=O)Oc1ccc(SCc2cccc(Cn3cncn3)c2)cc1Cl [compound 1979] | < 1000 | < 1000 |  |
| NS(=O)(=O)Oc1ccc(SCc2ccc(Cn3cncn3)cc2)cc1Cl [compound 1980] | < 1000 | < 1000 |  |
